Among the data in US9169260B2 (MERCK SHARP & DOHME CORP., priority 2011, dated 2015) are IC50 values, retold here.

Where only a bound is given, the exact number is not on record here.

GST tagged IRAK-4, sequence (Q9NWZ3 whole entry): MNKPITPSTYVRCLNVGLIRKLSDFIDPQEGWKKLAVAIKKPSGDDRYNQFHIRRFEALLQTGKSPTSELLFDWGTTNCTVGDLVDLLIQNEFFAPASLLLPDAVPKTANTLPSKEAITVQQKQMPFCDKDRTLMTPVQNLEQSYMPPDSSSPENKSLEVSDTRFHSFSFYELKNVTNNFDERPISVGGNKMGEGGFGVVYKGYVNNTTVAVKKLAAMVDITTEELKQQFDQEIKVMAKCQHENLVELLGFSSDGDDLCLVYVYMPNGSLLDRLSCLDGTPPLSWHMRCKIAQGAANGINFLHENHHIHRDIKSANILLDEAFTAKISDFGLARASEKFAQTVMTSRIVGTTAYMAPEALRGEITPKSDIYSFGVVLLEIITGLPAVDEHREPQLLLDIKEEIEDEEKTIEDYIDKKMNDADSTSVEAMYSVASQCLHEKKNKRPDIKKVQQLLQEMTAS

The first assay has as its target GST tagged IRAK-4 (Homo sapiens (Human), UniProt Q9NWZ3). The assay can be described thus: IRAK-4 Kinase Assay (IMAP fluorescence polarization). The class given is biochemical. Conditions: 100 μM ATP, 30 minutes at 25° C. The procedure, abridged:
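Activity was read by IMAP fluorescence polarization, where phosphopeptide binding to M(III) nanoparticles raises FP. The 30-minute, 25° C reaction used 100 μM ATP, 100 nM RP7030 substrate and 0.5 nM GST-IRAK-4 in pH 7.2 Tris buffer with MgCl2, DTT and Tween 20.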
With `Cc1ccc(-n2nc(-c3ccc(S(N)(=O)=O)cc3)cc2NC(=O)c2cnn3cccnc23)cc1` [Example 99, N-(3-(4-sulfamoylphenyl)-1-(p-tolyl)-1H-pyrazol-5-yl)pyrazolo[1,5-a]pyrimidine-3-carboxamide], the half-inhibitory concentration (IC50) (as a rule, the concentration needed to halve the response being measured) was below 0.1 µM. The same measure, in the same setting: next, `CNS(=O)(=O)c1ccc(-c2cc(NC(=O)c3cnn4cccnc34)n(-c3ccc(C)cc3F)n2)cc1` [Example 100, N-(1-(2-fluoro-4-methylphenyl)-3-(4-(N-methylsulfamoyl)phenyl)-1H-pyrazol-5-yl)pyrazolo[1,5-a]pyrimidine-3-carboxamide]: below 0.1 µM. The molecule `CNS(=O)(=O)c1ccc(-c2cc(NC(=O)c3cnn4cccnc34)n(-c3ccc(C4CC4)cc3F)n2)cc1` [Example 101, N-(1-(4-cyclopropyl-2-fluorophenyl)-3-(4-(N-methylsulfamoyl)phenyl)-1H-pyrazol-5-yl)pyrazolo[1,5-a]pyrimidine-3-carboxamide] returned a half-maximal inhibitory concentration (IC50) below 0.1 µM.

As to `Cc1ccc(-n2nc(-c3ccc(NS(C)(=O)=O)cc3)cc2NC(=O)c2cnn3cccnc23)cc1` [Example 103, N-(3-(4-(methylsulfonamido)phenyl)-1-(p-tolyl)-1H-pyrazol-5-yl)pyrazolo[1,5-a]pyrimidine-3-carboxamide], the IC50 is below 0.1 µM. On the same count and under the same terms, the same measure for `COc1ccc(-n2nc(C3CCNCC3)cc2NC(=O)c2cnn3cc(C(N)=O)cnc23)cc1` [Example 105, N3-(1-(4-methoxyphenyl)-3-(piperidin-4-yl)-1H-pyrazol-5-yl)pyrazolo[1,5-a]pyrimidine-3,6-dicarboxamide]: below 0.1 µM; for `Cc1ccc(-n2nc(C3CCN(C(C)C)CC3)cc2NC(=O)c2cnn3cc(Br)cnc23)cc1` [Example 108, 6-bromo-N-(3-(1-isopropylpiperidin-4-yl)-1-(p-tolyl)-1H-pyrazol-5-yl)pyrazolo[1,5-a]pyrimidine-3-carboxamide]: below 0.1 µM.

The molecule `Cc1ccc(-n2nc(C3CCN(C4CCCOC4)CC3)cc2NC(=O)c2cnn3cc(Br)cnc23)cc1` (centres unmarked) [Example 109, 6-bromo-N-(3-(1-(tetrahydro-2H-pyran-3-yl)piperidin-4-yl)-1-(p-tolyl)-1H-pyrazol-5-yl)pyrazolo[1,5-a]pyrimidine-3-carboxamide] showed an IC50 below 0.1 µM.

Molecule `Cc1ccc(-n2nc(C3CCN(C4CCOCC4)CC3)cc2NC(=O)c2cnn3cc(Br)cnc23)cc1` [Example 110, 6-bromo-N-(3-(1-(tetrahydro-2H-pyran-4-yl)piperidin-4-yl)-1-(p-tolyl)-1H-pyrazol-5-yl)pyrazolo[1,5-a]pyrimidine-3-carboxamide] returned an IC50 below 0.1 µM.

On to `Cc1ccc(-n2nc(C3CCN(C(=O)CCN(C)C)CC3)cc2NC(=O)c2cnn3cc(Br)cnc23)cc1` [Example 113, 6-bromo-N-(3-(1-(3-(dimethylamino)propanoyl)piperidin-4-yl)-1-(p-tolyl)-1H-pyrazol-5-yl)pyrazolo[1,5-a]pyrimidine-3-carboxamide], for which the IC50 was below 0.1 µM.

`CCN(CC)CCC(=O)N1CCC(c2cc(NC(=O)c3cnn4cc(Br)cnc34)n(-c3ccc(C)cc3)n2)CC1` [Example 114, 6-bromo-N-(3-(1-(3-(diethylamino)propanoyl)piperidin-4-yl)-1-(p-tolyl)-1H-pyrazol-5-yl)pyrazolo[1,5-a]pyrimidine-3-carboxamide] came in with a 50% inhibitory concentration (IC50) below 0.1 µM. For the molecule `Cc1ccc(-n2nc(C3CCN(CC(N)=O)CC3)cc2NC(=O)c2cnn3cc(Br)cnc23)cc1` [Example 115, N-(3-(1-(2-amino-2-oxoethyl)piperidin-4-yl)-1-(p-tolyl)-1H-pyrazol-5-yl)-6-bromopyrazolo[1,5-a]pyrimidine-3-carboxamide], the IC50 is below 0.1 µM.

On to `Cc1ccc(-n2nc(C3CCN(C(=O)C4(O)CCC4)CC3)cc2NC(=O)c2cnn3cc(Br)cnc23)cc1` [Example 116, 6-bromo-N-(3-(1-(1-hydroxycyclobutanecarbonyl)piperidin-4-yl)-1-(p-tolyl)-1H-pyrazol-5-yl)pyrazolo[1,5-a]pyrimidine-3-carboxamide], for which the 50% inhibitory concentration (IC50) is below 0.1 µM. Same read-out and setting: the same measure for `COC(=O)N1CCC(c2cc(NC(=O)c3cnn4cc(Br)cnc34)n(-c3ccc(C)cc3)n2)CC1` [Example 118, methyl 4-(5-(6-bromopyrazolo[1,5-a]pyrimidine-3-carboxamido)-1-(p-tolyl)-1H-pyrazol-3-yl)piperidine-1-carboxylate]: below 0.1 µM; for `Cc1ccc(-n2nc(C3CCN(S(C)(=O)=O)CC3)cc2NC(=O)c2cnn3cc(C(N)=O)cnc23)cc1` [Example 120, N3-(3-(1-(methylsulfonyl)piperidin-4-yl)-1-(p-tolyl)-1H-pyrazol-5-yl)pyrazolo[1,5-a]pyrimidine-3,6-dicarboxamide]: below 0.1 µM. The same measure, in the same setting: next, `Cc1ccc(-n2nc(-c3cccnc3)cc2NC(=O)c2cnn3cccnc23)cc1` [Example 123, N-(3-(pyridin-3-yl)-1-(p-tolyl)-1H-pyrazol-5-yl)pyrazolo[1,5-a]pyrimidine-3-carboxamide]: below 0.1 µM.

The assay is the same for the next values; noted with them: 100 μM ATP, 30 minutes at 25° C.; μM.
As to `Cc1ccc(-n2nc(C3CCS(=O)(=O)CC3)cc2NC(=O)c2cnn3cccnc23)cc1` [Example 98, N-(3-(1,1-dioxidotetrahydro-2H-thiopyran-4-yl)-1-(p-tolyl)-1H-pyrazol-5-yl)pyrazolo[1,5-a]pyrimidine-3-carboxamide], the half-maximal inhibitory concentration (IC50) is below 1 µM. The molecule `Cc1ccc(-n2nc(-c3ccc(N)cc3)cc2NC(=O)c2cnn3cccnc23)cc1` [Example 102, N-(3-(4-aminophenyl)-1-(p-tolyl)-1H-pyrazol-5-yl)pyrazolo[1,5-a]pyrimidine-3-carboxamide] came in with a concentration for half-maximal inhibition (IC50) below 1 µM.

Take `COc1ccc(-n2nc(C3CCNCC3)cc2NC(=O)c2cnn3cc(Br)cnc23)cc1` [Example 104, 6-bromo-N-(1-(4-methoxyphenyl)-3-(piperidin-4-yl)-1H-pyrazol-5-yl)pyrazolo[1,5-a]pyrimidine-3-carboxamide]: the IC50 was below 1 µM. Still for that read-out and setting: next, `Cc1ccc(-n2nc(C3CCNCC3)cc2NC(=O)c2cnn3cc(Br)cnc23)cc1` [Example 107, 6-bromo-N-(3-(piperidin-4-yl)-1-(p-tolyl)-1H-pyrazol-5-yl)pyrazolo[1,5-a]pyrimidine-3-carboxamide]: below 1 µM; `Cc1ccc(-n2nc(C3CCN(C)CC3)cc2NC(=O)c2cnn3cc(Br)cnc23)cc1` [Example 111, 6-bromo-N-(3-(1-methylpiperidin-4-yl)-1-(p-tolyl)-1H-pyrazol-5-yl)pyrazolo[1,5-a]pyrimidine-3-carboxamide]: below 1 µM; `Cc1ccc(-n2nc(C3CCN(C(=O)CO)CC3)cc2NC(=O)c2cnn3cc(Br)cnc23)cc1` [Example 112, 6-bromo-N-(3-(1-(2-hydroxyacetyl)piperidin-4-yl)-1-(p-tolyl)-1H-pyrazol-5-yl)pyrazolo[1,5-a]pyrimidine-3-carboxamide]: below 1 µM.

The molecule `Cc1ccc(-n2nc(C3CCN(C(=O)C4CN(C)CCO4)CC3)cc2NC(=O)c2cnn3cc(Br)cnc23)cc1` (centres unmarked) [Example 117, 6-bromo-N-(3-(1-(4-methylmorpholine-2-carbonyl)piperidin-4-yl)-1-(p-tolyl)-1H-pyrazol-5-yl)pyrazolo[1,5-a]pyrimidine-3-carboxamide] registered an IC50 below 1 µM. The same measure, in the same setting: next, `Cc1ccc(-n2nc(C3CCN(S(C)(=O)=O)CC3)cc2NC(=O)c2cnn3cc(C#N)cnc23)cc1` [Example 121, 6-cyano-N-(3-(1-(methylsulfonyl)piperidin-4-yl)-1-(p-tolyl)-1H-pyrazol-5-yl)pyrazolo[1,5-a]pyrimidine-3-carboxamide]: below 1 µM.
